Reference: patent US20050245571A1, “Amine derivative” (priority 2001, published 2005)

Experiments:
[1] = target: T1, human SSTR3 (Homo sapiens, UniProt P32745); test: Binding inhibition of 125I-somatostatin-14, SSTR3 membrane fraction; settings: 125I-somatostatin-14 binding, CHO membrane fraction, 25° C. 60 minutes, Hill plots
T1 construct: expressed in transfected cells; host or cells: CHO (dhfr-) cells, strain SSTR3-15-19, plasmid pA1-11-SSTR3 (pAKKO-111 vector)

[2] = target: T2, human SSTR2 (Homo sapiens, UniProt P30874); test: Binding inhibition of 125I-somatostatin-14, SSTR2 membrane fraction; settings: 125I-somatostatin-14 binding, CHO membrane fraction, 25° C. 60 minutes, Hill plots
T2 construct: expressed in transfected cells; host or cells: CHO (dhfr-) cells, strain SSTR2-HS5-9, plasmid pAC01 (pAKKO-111 vector)
Description: (4) Cloning of Human Somatostatin Receptor Protein Subtype 2 (SSTR2) DNA
pAKKO-111 mentioned under the above (2) was used as the expression vector in CHO (Chinese Hamster Ovary) cells. 5 μg of the plasmid having human SSTR2 cDNA fragment obtained under the above (4) was digested with the restriction enzyme Sal I and subjected to electrophoresis on 1% agarose gel to recover the 1.1 kb DNA fragment encoding human SSTR2. Next, 1 μg of the above-mentioned expression vector pAKKO-111 (5.5 kb) was digested with Sal I to prepare the cloning site for insertion of human SSTR2 DNA fragment. Said expression vector fragment and the 1.1 kb DNA fragment were ligated with T4 DNA ligase. The reaction mixture was introduced into E. coli JM109 by the calcium chloride method to obtain the expression plasmid pAC01 in which human SSTR2 DNA fragment was inserted in regular direction against the promoter from the transformants. This transformant is expressed as Escherichia coli JM109/pAC-01.
1×10^6 CHO (dhfr^−) cells were cultured for 24 hours in HAM F12 medium containing 10% bovine fetal serum on a laboratory dish of 8 cm in diameter. To the cells was transfected 10 μg of the human SSTR2 cDNA expression plasmid, pA-C01, obtained under the above (5) by the calcium phosphate method (Cell Phect Transfection Kit: Pharmacia). The medium was switched to DMEM medium containing 10% dialyzed bovine fetal serum 24 hours after the transfection to select the colony-forming cells (i.e. DHFR^+ cells) in this medium. Further, the selected cells were cloned from a single cell by the limiting dilution method and a cell strain which highly expresses human SSTR2, SSTR2-HS5-9, was selected.
The receptor binding inhibition rate (%) of the subject compound was calculated using each of the membrane fractions prepared in Experimental Examples 1 and 2.
The membrane fraction was diluted with a buffer solution for assay to adjust the concentration to 3 μg/ml. The diluate was placed in tubes each in quantity of 173 μl. To this were simultaneously added 2 μl of a solution of a subject compound in DMSO and 25 μl of a […] radioisotope-labeled somatostatin-14 (^125I-somatostatin-14: Amersham). For measurement of the maximum binding, a reaction mixture added with 2 μl of DMSO and 25 μl of a […] ^125I-somatostatin was prepared. For measurement of non-specific binding, a reaction mixture added with 2 μl of a 100 μM somatostatin solution in DMSO and 25 μl of a 200 pM ^125I-somatostatin solution was prepared at the same time. The mixtures were allowed to react at 25° C. for 60 minutes. Then, the reaction mixture was filtered by aspiration using a Whatman glass filter (GF-B) treated with polyethylenine. After filtration, the radioactivity of ^125I-somatostatin-14 remaining on the filter paper was measured by a γ-counter. The binding inhibition rate (%) of each subject compound was calculated by the following formula: (TB-SB)/(TB-NSB)×100 • SB: radioactivity when a compound was added • TB: maximum binding radioactivity • NSB: non-specific binding radioactivity
The binding inhibition rates were measured by changing the concentrations of the subject compound, and the 50% inhibiting concentration of the subject compound (IC50 value) was calculated by the Hill plots. The results are shown in [Table 1].

[3] = target: T3, human SSTR5 (Homo sapiens, UniProt P35346); test: Binding inhibition of 125I-somatostatin-14, SSTR5 membrane fraction; settings: 125I-somatostatin-14 binding, CHO membrane fraction, 25° C. 60 minutes, Hill plots
T3 construct: expressed in transfected cells; host or cells: CHO (dhfr-) cells, strain SSTR5-32-4, plasmid pA1-11-SSTR5 (pAKKO-111 vector)

[4] = system: glucagon secretion; test: Glucagon Secretion Inhibitory Activity Test (Rat); format: in vivo; settings: SD rats male fasted, 3 mg/kg oral, insulin 2 U/kg s.c. 120 minutes later, plasma glucagon 30 minutes after insulin
Description: Glucagon Secretion Inhibitory Activity Test (Rat)
A 0.5% methylcellulose suspension containing the subject compound (3 mg/kg body weight) (compound administration group) or a 0.5% methylcellulose suspension (compound non-administration group) was orally administered to SD rats (male, 7 weeks of age) after fasting overnight, and 120 minutes later, insulin (2 U/kg body weight, Novo Nordisk) was subcutaneously administered. After 30 minutes from the insulin administration, the blood was,drawn from the vein of eyegrounds of the rats using capillary, and blood plasma was separated by centrifugation. The concentration of glucagon in the obtained blood plasma was measured by radioimmunoassay using a Daiichi glucagon kit (Daiichi Isotope). As a non-treated group, the concentration of glucagon in the blood plasma of rat of the compound non-administration group free of insulin administration was measured in the same manner as above. […]

T2 sequence (P30874 whole entry): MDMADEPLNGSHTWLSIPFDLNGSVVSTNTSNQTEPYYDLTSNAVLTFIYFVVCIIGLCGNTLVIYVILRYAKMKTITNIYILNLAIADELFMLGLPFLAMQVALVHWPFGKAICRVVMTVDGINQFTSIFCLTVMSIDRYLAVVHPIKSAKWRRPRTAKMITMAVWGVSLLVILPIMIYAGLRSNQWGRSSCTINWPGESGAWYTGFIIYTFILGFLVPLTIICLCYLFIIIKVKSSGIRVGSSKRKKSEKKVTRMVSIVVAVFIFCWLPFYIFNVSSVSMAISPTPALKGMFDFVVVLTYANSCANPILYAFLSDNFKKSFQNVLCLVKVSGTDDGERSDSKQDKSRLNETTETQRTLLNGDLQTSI
T1 sequence (P32745 whole entry): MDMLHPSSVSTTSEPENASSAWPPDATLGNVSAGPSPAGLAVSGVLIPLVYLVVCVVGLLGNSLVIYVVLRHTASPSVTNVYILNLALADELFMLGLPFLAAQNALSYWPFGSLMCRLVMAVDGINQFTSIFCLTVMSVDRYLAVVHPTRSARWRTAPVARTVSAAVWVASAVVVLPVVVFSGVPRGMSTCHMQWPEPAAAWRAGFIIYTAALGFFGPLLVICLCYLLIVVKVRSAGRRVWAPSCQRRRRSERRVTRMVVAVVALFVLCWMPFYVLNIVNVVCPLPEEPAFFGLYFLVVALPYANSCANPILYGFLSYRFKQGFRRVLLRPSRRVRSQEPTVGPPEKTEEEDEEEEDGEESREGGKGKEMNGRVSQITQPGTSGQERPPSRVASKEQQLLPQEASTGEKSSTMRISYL
T3 sequence (P35346 whole entry): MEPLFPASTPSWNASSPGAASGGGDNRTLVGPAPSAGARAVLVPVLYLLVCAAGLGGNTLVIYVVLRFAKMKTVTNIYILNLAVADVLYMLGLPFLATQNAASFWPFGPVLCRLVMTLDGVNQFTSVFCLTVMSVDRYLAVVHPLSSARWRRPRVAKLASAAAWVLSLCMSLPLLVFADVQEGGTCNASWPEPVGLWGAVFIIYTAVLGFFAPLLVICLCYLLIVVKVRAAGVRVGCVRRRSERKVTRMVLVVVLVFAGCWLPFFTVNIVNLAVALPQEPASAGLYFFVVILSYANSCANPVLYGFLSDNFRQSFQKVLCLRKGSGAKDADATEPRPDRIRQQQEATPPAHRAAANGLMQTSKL

SMILES	IC50 [1] [nM]	IC50 [2] [nM]	IC50 [3] [nM]	glucagon secretion (% of control) [4]
CC(c1c[nH]c2ccccc12)C(NC(=O)N1CCC(Oc2ccc(O)cc2)CC1)C(=O)N1C[C@@H](CN(C)C)Cc2cc(Cl)ccc21 (single isomer, unassigned; (-)) [Example 141]	3	0.05	10	
C[C@@H](c1c[nH]c2ccccc12)[C@@H](NC(=O)C1CCN(C(=O)c2cc3ccccc3n2C)CC1)C(=O)N1C[C@@H](CN(C)C)Cc2cc(Cl)ccc21 [Example 6, N-[(1R,2S)-1-[((3R)-6-chloro-3-[(dimethylamino)methyl]-3,4-dihydro-1(2H)-quinolinyl)carbonyl]-2-(1H-indol-3-yl)propyl]-1-[(1-methyl-1H-indol-2-yl)carbonyl]-4-piperidinecarboxamide]	30	0.2	60	15.6 % of control
C[C@@H](c1c[nH]c2ccccc12)[C@@H](NC(=O)N1CCC(Oc2ccccc2)CC1)C(=O)N1C[C@@H](CN(C)C)Cc2cc(Cl)ccc21 [Example 42, N-[(1R,2S)-1-[((3R)-6-chloro-3-[(dimethylamino)methyl]-3,4-dihydro-1(2H)-quinolinyl)carbonyl]-2-(1H-indol-3-yl)propyl]-4-phenoxy-1-piperidinecarboxamide]	6	0.1	40	3.0 % of control
C[C@@H](c1c[nH]c2ccccc12)[C@@H](NC(=O)N1CCC(Oc2ccc(F)cc2)CC1)C(=O)N1C[C@@H](CN(C)C)Cc2cc(Cl)ccc21 [Example 153, N-[(1R,2S)-1-[[(3R)-6-chloro-3-[(dimethylamino)methyl]-3,4-dihydro-1(2H)-quinolinyl]carbonyl]-2-(1H-indol-3-yl)propyl]-4-(4-fluorophenoxy)-1-piperidinecarboxamide]	10	0.1	40	
C[C@@H](c1c[nH]c2ccccc12)[C@@H](NC(=O)N1CCN(C(=O)c2ccccc2)CC1)C(=O)N1C[C@@H](CN(C)C)Cc2cc(Cl)ccc21 [Example 157, 4-benzoyl-N-[(1R,2S)-1-[[(3R)-6-chloro-3-[(dimethylamino)methyl]-3,4-dihydro-1(2H)-quinolinyl]carbonyl]-2-(1H-indol-3-yl)propyl]-1-piperazinecarboxamide]	1	0.05	5	
